Assay results taken from patent publication US12589143B2, “Human anti-PD-L1 peptide vaccines and methods of their use” (priority 2019, dated 2026).
Values joined by “and” are separate entries in the source; they are usually repeats but may differ in a detail not shown here. Equal values may be shown once. Where no end group is shown, it is not given here.

Legend:
PD-1/PD-L1 interaction = target: T1, PD-1/PD-L1 interaction (Homo sapiens, UniProt Q9NZQ7); assay: PD-1/PD-L1 blockade bioassay (Promega); type: cell-based; settings: antibodies from immunized rabbits, compared to Nivolumab and Atezolizumab
T1 construct: host or cells: PD-L1 aAPC/CHO-K1 cells and PD-1 effector cells
Description: The assay was performed following the manufacturer's protocol for the PD-1/PD-L1 blockade bioassay (Promega).
The bioluminescent cell-based PD-1/PD-L1 blockade bioassays provide a good option for rapid screening of therapeutic antibodies or other compounds developed to interfere with PD-1-signaling interaction. PD1/PD-L1 blockade assay was used to test the functionality of 3 anti-PD-L1 antibodies. It was observed that purified polyclonal anti-PD-L1 antibody from the rabbits was able to block PD1/PD-L1 interaction similar to commercial anti-human PD-L1 antibody (FIG. 12). […] In FIG. 12, we show the capacity of each of the PD-L1 vaccines to block the PD-1:PD-L1 interaction as compared to Nivolumab and Atezolizumab. Remarkably only PD-L1 130-147 antibodies were effective
The assay was performed following the manufacturer's protocol for the PD-1/PD-L1 blockade bioassay (Promega). In brief, 4×10^5 aAPC/CHO-K1 or PD-L1 aAPC/CHO-K1 cells were seeded into 96-well plates in RPMI-1640 with 10% FBS. After overnight culturing, the medium was aspirated, and serially diluted purified PD-L1 or PD-1 antibodies, as well as Nivolumab and Atezolizumab antibodies (as reference antibodies) were added. Next, PD-1 effector cells were co-cultured and plate was kept for 5 h at 37° C. in a humidified 5% CO2 incubator. Following mixing with Bio-Glo Reagent, the luminescence was measured with a luminescence plate reader, SpectraMax M3 plate reader (Molecular Devices).

[1] = test system: MVF-PD-L1 peptide immunogen; assay: Immunogenicity in Balb/c mice, experiment 2 (CT26/HER-2): ELISA of sera vs each MVF-PD-L1 peptide immunogen; type: in vivo
Description: Immunogenicity of MVF-PD-L1 B-cell epitopes. New Zealand White rabbits were immunized with 1 mg of each MVF-peptide immunogens dissolved in dd H2O emulsified (1:1) in Montanide ISA 720 vehicle (Seppic) with 333 μg of N-acetylglucosamine-3yl-acetyl-1-alanyl-d-isoglutamine (nor-MDP). Rabbits were boosted with the same doses at 3-week's intervals. Blood was collected via the central auricular artery in rabbits. Blood was collected weekly (1Y+3, 2Y+1, 2Y+2,2Y+3, 3Y+1, 3Y+2 and sera tested for antibody titers by ELISA using the immunogens MVF-PD-L1 peptides. Sera (terminal) from rabbit (3Y+3) immunized with MVF-PD-1 peptide immunogens were tested individually versus the immunogen by ELISA. 200 ng/well peptide were used in duplicates to coat the ELISA plates. Titers are defined as the highest dilution of sera with an absorbance value of 0.2 after subtracting the blank. […]
In order to verify the efficacy of the PD-L1 epitope vaccines in vivo in the CT26/HER-2 carcinoma cell line, Balb/c mice (10 mice/group) were immunized with 100 μg each of MVF-PD-L1 (36-53), MVF-PD-L1 (50-67), MVF-PD-L1 (95-112) and MVF-PD-L1 (130-147) emulsified with nor-MDP and Montanide 720 (1:1 ratio) SCHEME 2A (FIG. 15A). As detailed in SCHEME 2A-D (FIGS. 15A, 15B, 15C, and 15D), mice were immunized 3 times at 3 weeks intervals. […] All PD-L1 epitopes elicited high titers of PD-L1 anti-peptide antibodies by ELISA. […] We also investigated the combination of PD-1(92-110) with PD-L1-95.
For each peptide, vaccine antibodies were raised in New Zealand white rabbits, purchased from Charles River Laboratories (Wilmington, MA, USA). Rabbits were immunized with 1 mg of MVF chimeric peptide emulsified in Montanide ISA 720 (Seppic, Paris, France) and boosted 3 times at three week intervals. For mouse experiments, mice, 6-8 weeks old, were immunized with 0.1 mg of peptide emulsified in ISA720 (1:1 ratio). Mice were boosted with the respective doses at 3-week intervals. Blood was then collected and sera were tested for antibody titers. Sera were collected weekly and peptide vaccine antibodies were purified by affinity chromatography using a protein A/G column and the concentration was measured using Spectrophometer. All experiments were performed in accordance with the U.S. Public Health Service Policy on Humane Care and Use of Laboratory animals and approved by the Ohio State University Institutional Animals Care and Use Committee, detailed in the accepted protocol.
6-8 weeks old BALB/c mice (Charles River, Wilmington, MA) were used as standard animal models. Mouse CT26 colon carcinoma cell line was purchased from American Type Culture Collection Cells and were regularly cultured in RPMI1640 medium containing 10% FBS. CT26/HER2 cells were kindly provided by M. Penichet. Vaccines were dissolved in sterile water and emulsified in Montanide ISA 720 (1:1). Female Balb/c mice (Charles River Laboratories) at the age of 6-8 weeks were immunized three times at 3-week intervals with 100 μg of each peptide vaccine, and 2 weeks after the third immunization, the mice were challenged with CT26 and/or CT26/HER-2 tumor cells, which were implanted subcutaneously (s.c) on the right flank (1×10^5 per mouse). 200 μg of rat α-mouse PD-L1 mAb 10F.9G2 (Bio X Cell, West Lebanon, NH) were administered intraperitoneally (i.p.), twice weekly following tumor inoculation in the control group. Mice were monitored and scored for the formation of palpable tumors on a daily basis and sacrificed if tumors became necrotic or exceeded the predetermined size of 2,000 mm^3. Tumor volumes were measured in cubic millimeters with calipers and calculated with the following formula: A×B^2×0.5, where A is the largest diameter, and B is the widest point perpendicular to length. During immunization, blood was drawn weekly and used in ELISA to monitor antibody titers.

T1 sequence (Q9NZQ7 19-290): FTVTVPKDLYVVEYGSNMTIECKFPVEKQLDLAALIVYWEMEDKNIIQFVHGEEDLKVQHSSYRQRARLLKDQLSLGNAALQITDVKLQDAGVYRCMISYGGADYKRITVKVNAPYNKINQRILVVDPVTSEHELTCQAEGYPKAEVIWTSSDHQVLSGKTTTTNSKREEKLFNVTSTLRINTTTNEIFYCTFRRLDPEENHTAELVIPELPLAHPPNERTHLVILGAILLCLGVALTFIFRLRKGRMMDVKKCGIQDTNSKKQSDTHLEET

KLLSLIKGVIVHRLEGVEGPSLVTSEHELTCQAEGYPKAE (KLLSLIKGVIVHRLEGVEGPSLVTSEHELTCQAEGYPKAE-NH2) [PD-L1(130)]
blocking of PD-1/PD-L1 interaction (PD-1/PD-L1 interaction): able to inhibit PD-1/PD-L1
Immunogenicity (titers) 1′ Conc. 1: ([1]; bleed 1Y + 3, (1to100)): 1600
ELISA plate reading of serum ([1]; bleed 1Y + 3, (1to100), dilution 800, duplicate wells): 0.449 and 0.439
ELISA plate reading of serum ([1]; bleed 1Y + 3, (1to100), dilution 1,600, duplicate wells): 0.262 and 0.245
ELISA plate reading of serum ([1]; bleed 1Y + 3, (1to100), dilution 6,400, duplicate wells): 0.072 and 0.050
ELISA plate reading of serum ([1]; bleed 1Y + 3, (1to100), dilution 12,800, duplicate wells): 0.040 and 0.030
ELISA plate reading of serum ([1]; bleed 1Y + 3, (1to100), dilution row 100, duplicate wells): 1.023 and 1.039
ELISA plate reading of serum ([1]; bleed 1Y + 3, (1to100), dilution row 200, duplicate wells): 0.861 and 0.849
ELISA plate reading of serum ([1]; bleed 1Y + 3, (1to100), dilution row 400, duplicate wells): 0.671 and 0.672
ELISA plate reading of serum ([1]; bleed 1Y + 3, (1to100), dilution row 3,200, duplicate wells): 0.148 and 0.110
Immunogenicity (titers) 1′ Conc. 1: ([1]; bleed 2Y + 1, (1to100)): 6400
ELISA plate reading of serum ([1]; bleed 2Y + 1, (1to100), dilution 800, duplicate wells, bleed 2Y + 1): 1.118 and 1.079
ELISA plate reading of serum ([1]; bleed 2Y + 1, (1to100), dilution 1,600, duplicate wells, bleed 2Y + 1): 0.819 and 0.774
ELISA plate reading of serum ([1]; bleed 2Y + 1, (1to100), dilution 6,400, duplicate wells, bleed 2Y + 1): 0.311 and 0.286
ELISA plate reading of serum ([1]; bleed 2Y + 1, (1to100), dilution 12,800, duplicate wells, bleed 2Y + 1): 0.175 and 0.162
ELISA plate reading of serum ([1]; bleed 2Y + 1, (1to100), dilution row 100, duplicate wells, bleed 2Y + 1): 1.606 and 1.563
ELISA plate reading of serum ([1]; bleed 2Y + 1, (1to100), dilution row 200, duplicate wells, bleed 2Y + 1): 1.477 and 1.479
ELISA plate reading of serum ([1]; bleed 2Y + 1, (1to100), dilution row 400, duplicate wells, bleed 2Y + 1): 1.378 and 1.347
ELISA plate reading of serum ([1]; bleed 2Y + 1, (1to100), dilution row 3,200, duplicate wells, bleed 2Y + 1): 0.516 and 0.492
Immunogenicity (titers) 1′ Conc. 1: ([1]; bleed 2Y + 2, (1to1k)): 16000
ELISA plate reading of serum ([1]; bleed 2Y + 2, (1to1k), dilution 800, duplicate wells): 0.407 and 0.427
ELISA plate reading of serum ([1]; bleed 2Y + 2, (1to1k), dilution 1,600, duplicate wells): 0.280 and 0.257
ELISA plate reading of serum ([1]; bleed 2Y + 2, (1to1k), dilution 6,400, duplicate wells): 0.064 and 0.061
ELISA plate reading of serum ([1]; bleed 2Y + 2, (1to1k), dilution row 100, duplicate wells): 1.476 and 1.437
ELISA plate reading of serum ([1]; bleed 2Y + 2, (1to1k), dilution row 200, duplicate wells): 1.131 and 1.086
ELISA plate reading of serum ([1]; bleed 2Y + 2, (1to1k), dilution row 400, duplicate wells): 0.767 and 0.735
ELISA plate reading of serum ([1]; bleed 2Y + 2, (1to1k), dilution row 3,200, duplicate wells): 0.145 and 0.132
Immunogenicity (titers) 1′ Conc. 1: ([1]; bleed 2Y + 3, (1to1k)): 64000
ELISA plate reading of serum ([1]; bleed 2Y + 3, (1to1k), dilution 800, duplicate wells): 1.024 and 0.946
ELISA plate reading of serum ([1]; bleed 2Y + 3, (1to1k), dilution 1,600, duplicate wells): 0.699 and 0.615
ELISA plate reading of serum ([1]; bleed 2Y + 3, (1to1k), dilution 6,400, duplicate wells): 0.246 and 0.233
ELISA plate reading of serum ([1]; bleed 2Y + 3, (1to1k), dilution row 100, duplicate wells): 1.711 and 1.644
ELISA plate reading of serum ([1]; bleed 2Y + 3, (1to1k), dilution row 200, duplicate wells): 1.518 and 1.488
ELISA plate reading of serum ([1]; bleed 2Y + 3, (1to1k), dilution row 400, duplicate wells): 1.317 and 1.263
ELISA plate reading of serum ([1]; bleed 2Y + 3, (1to1k), dilution row 3,200, duplicate wells): 0.435 and 0.430
Immunogenicity (titers) 1′ Conc. 1: ([1]; bleed 3Y + 1, (1to1k)): 64000
ELISA plate reading of serum ([1]; bleed 3Y + 1, (1to1k), dilution 800, duplicate wells, bleed 3Y + 1): 1.176 and 1.158
ELISA plate reading of serum ([1]; bleed 3Y + 1, (1to1k), dilution 1,600, duplicate wells, bleed 3Y + 1): 0.801 and 0.729
ELISA plate reading of serum ([1]; bleed 3Y + 1, (1to1k), dilution 6,400, duplicate wells, bleed 3Y + 1): 0.219 and 0.206
ELISA plate reading of serum ([1]; bleed 3Y + 1, (1to1k), dilution row 100, duplicate wells, bleed 3Y + 1): 1.928 and 1.945
ELISA plate reading of serum ([1]; bleed 3Y + 1, (1to1k), dilution row 200, duplicate wells, bleed 3Y + 1): 1.823 and 1.707
ELISA plate reading of serum ([1]; bleed 3Y + 1, (1to1k), dilution row 400, duplicate wells, bleed 3Y + 1): 1.516 and 1.458
ELISA plate reading of serum ([1]; bleed 3Y + 1, (1to1k), dilution row 3,200, duplicate wells, bleed 3Y + 1): 0.438 and 0.427
Immunogenicity (titers) 1′ Conc. 1: ([1]; bleed 3Y + 2, (1to1k)): 64000
ELISA plate reading of serum ([1]; bleed 3Y + 2, (1to1k), dilution 800, duplicate wells, bleed 3Y + 2): 1.412 and 1.389
ELISA plate reading of serum ([1]; bleed 3Y + 2, (1to1k), dilution 1,600, duplicate wells, bleed 3Y + 2): 0.961 and 0.874
ELISA plate reading of serum ([1]; bleed 3Y + 2, (1to1k), dilution 6,400, duplicate wells, bleed 3Y + 2): 0.262
ELISA plate reading of serum ([1]; bleed 3Y + 2, (1to1k), dilution row 100, duplicate wells, bleed 3Y + 2): 2.313 and 2.334
ELISA plate reading of serum ([1]; bleed 3Y + 2, (1to1k), dilution row 200, duplicate wells, bleed 3Y + 2): 2.188 and 2.048
ELISA plate reading of serum ([1]; bleed 3Y + 2, (1to1k), dilution row 400, duplicate wells, bleed 3Y + 2): 1.819 and 1.749
ELISA plate reading of serum ([1]; bleed 3Y + 2, (1to1k), dilution row 3,200, duplicate wells, bleed 3Y + 2): 0.526 and 0.512
Immunogenicity (titers) 1′ Conc. 1: ([1]; bleed 3Y + 3, (1to1k)): 64000
ELISA plate reading of serum ([1]; bleed 3Y + 3, (1to1k), dilution 800, duplicate wells): 1.445 and 1.468
ELISA plate reading of serum ([1]; bleed 3Y + 3, (1to1k), dilution 1,600, duplicate wells): 0.909 and 0.999
ELISA plate reading of serum ([1]; bleed 3Y + 3, (1to1k), dilution 6,400, duplicate wells): 0.257
ELISA plate reading of serum ([1]; bleed 3Y + 3, (1to1k), dilution row 100, duplicate wells): 2.427 and 2.406
ELISA plate reading of serum ([1]; bleed 3Y + 3, (1to1k), dilution row 200, duplicate wells): 2.130 and 2.275
ELISA plate reading of serum ([1]; bleed 3Y + 3, (1to1k), dilution row 400, duplicate wells): 1.819 and 1.892
ELISA plate reading of serum ([1]; bleed 3Y + 3, (1to1k), dilution row 3,200, duplicate wells): 0.532 and 0.547

KLLSLIKGVIVHRLEGVEGPSLYRCMISYGGADYKRITVK (KLLSLIKGVIVHRLEGVEGPSLYRCMISYGGADYKRITVK-NH2) [PD-L1(95)]
blocking of PD-1/PD-L1 interaction (PD-1/PD-L1 interaction): unable to block PD-1 and PD-L1
Immunogenicity (titers) 1′ Conc. 1: ([1]; Balb/c mice, bleed 1Y + 3): 100
Immunogenicity (titers) 1′ Conc. 1: ([1]; Balb/c mice, bleed 2Y + 1): 12800
Immunogenicity (titers) 1′ Conc. 1: ([1]; Balb/c mice, bleed 2Y + 2): 64000
Immunogenicity (titers) 1′ Conc. 1: ([1]; Balb/c mice, bleed 2Y + 3): 64000
Immunogenicity (titers) 1′ Conc. 1: ([1]; Balb/c mice, bleed 3Y + 1): 128000
Immunogenicity (titers) 1′ Conc. 1: ([1]; Balb/c mice, bleed 3Y + 2): 128000
Immunogenicity (titers) 1′ Conc. 1: ([1]; Balb/c mice, bleed 3Y + 3): 128000
